What was measured:
Format in all cases: cell-based
Settings in all cases: compounds at 50 nM and 500 nM
WEE1 = target: T1, WEE1 (Homo sapiens, UniProt P30291+Q96SW2); experiment: Western blot degradation of WEE1 in hPBMCs (24 h)
T1 construct: The supernatant was aspirated as the extracted total cell protein; endogenous in cells; host or cells: human peripheral blood mononuclear cells (hPBMCs)
In short: (§1)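 hPBMCs (1×10^6 cells/mL) exposed to compound at 50 nM and 500 nM for 24 h, DMSO as reference. Lysates run on SDS-PAGE and immunoblotted. Band grayscale normalized to internal control gives % protein remaining; DC50 from fitted concentration-response of band intensity versus DMSO.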

IKZF1 = target: T2, IKZF1 (Homo sapiens, UniProt Q13422+Q96SW2); experiment: Western blot degradation of IKZF1 in hPBMCs (24 h)
T2 construct: The supernatant was aspirated as the extracted total cell protein; endogenous in cells; host or cells: human peripheral blood mononuclear cells (hPBMCs)
In short: as §1

IKZF2 = target: T3, IKZF2 (Homo sapiens, UniProt Q96SW2+Q9UKS7); experiment: Western blot degradation of IKZF2 in hPBMCs (24 h)
T3 construct: The supernatant was aspirated as the extracted total cell protein; endogenous in cells; host or cells: human peripheral blood mononuclear cells (hPBMCs)
In short: as §1

IKZF3 = target: T4, IKZF3 (Homo sapiens, UniProt Q96SW2+Q9UKT9); experiment: Western blot degradation of IKZF3 in hPBMCs (24 h)
T4 construct: The supernatant was aspirated as the extracted total cell protein; endogenous in cells; host or cells: human peripheral blood mononuclear cells (hPBMCs)
In short: as §1

CK1α = target: T5, CK1α (Homo sapiens, UniProt P48729+Q96SW2); experiment: Western blot degradation of CK1α in hPBMCs (24 h)
T5 construct: The supernatant was aspirated as the extracted total cell protein; endogenous in cells; host or cells: human peripheral blood mononuclear cells (hPBMCs)
In short: as §1

GSPT1 = target: T6, GSPT1 (Homo sapiens, UniProt P15170+Q96SW2); experiment: Western blot degradation of GSPT1 in hPBMCs (24 h)
T6 construct: The supernatant was aspirated as the extracted total cell protein; endogenous in cells; host or cells: human peripheral blood mononuclear cells (hPBMCs)
In short: as §1

T4 sequence (Q9UKT9 whole entry): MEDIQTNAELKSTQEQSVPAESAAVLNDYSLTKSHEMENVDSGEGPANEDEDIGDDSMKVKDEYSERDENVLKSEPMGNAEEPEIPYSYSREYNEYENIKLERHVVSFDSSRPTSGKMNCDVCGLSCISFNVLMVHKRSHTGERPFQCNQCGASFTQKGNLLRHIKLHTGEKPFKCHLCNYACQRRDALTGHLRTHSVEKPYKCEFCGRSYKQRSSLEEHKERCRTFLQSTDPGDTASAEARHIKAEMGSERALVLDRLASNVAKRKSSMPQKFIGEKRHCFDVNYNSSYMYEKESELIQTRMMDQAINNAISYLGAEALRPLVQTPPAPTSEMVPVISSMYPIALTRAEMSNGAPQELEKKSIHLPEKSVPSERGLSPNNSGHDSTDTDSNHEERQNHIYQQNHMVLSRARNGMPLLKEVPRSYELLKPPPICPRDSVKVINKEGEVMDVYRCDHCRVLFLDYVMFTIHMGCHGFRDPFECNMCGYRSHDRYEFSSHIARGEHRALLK
T4 sequence (Q96SW2 whole entry): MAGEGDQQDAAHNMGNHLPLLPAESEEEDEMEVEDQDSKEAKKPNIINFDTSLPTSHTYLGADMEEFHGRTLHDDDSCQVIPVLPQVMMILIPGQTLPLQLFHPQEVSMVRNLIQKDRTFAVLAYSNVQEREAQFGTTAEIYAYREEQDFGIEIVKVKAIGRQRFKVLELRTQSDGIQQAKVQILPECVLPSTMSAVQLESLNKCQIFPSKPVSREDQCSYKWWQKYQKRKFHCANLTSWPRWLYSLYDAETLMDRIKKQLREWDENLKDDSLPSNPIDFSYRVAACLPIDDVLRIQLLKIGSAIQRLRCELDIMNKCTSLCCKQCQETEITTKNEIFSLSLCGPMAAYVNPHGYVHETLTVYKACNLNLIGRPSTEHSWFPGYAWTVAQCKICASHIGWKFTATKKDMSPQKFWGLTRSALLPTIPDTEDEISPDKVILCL
T4 sequence (Q16531 whole entry partner): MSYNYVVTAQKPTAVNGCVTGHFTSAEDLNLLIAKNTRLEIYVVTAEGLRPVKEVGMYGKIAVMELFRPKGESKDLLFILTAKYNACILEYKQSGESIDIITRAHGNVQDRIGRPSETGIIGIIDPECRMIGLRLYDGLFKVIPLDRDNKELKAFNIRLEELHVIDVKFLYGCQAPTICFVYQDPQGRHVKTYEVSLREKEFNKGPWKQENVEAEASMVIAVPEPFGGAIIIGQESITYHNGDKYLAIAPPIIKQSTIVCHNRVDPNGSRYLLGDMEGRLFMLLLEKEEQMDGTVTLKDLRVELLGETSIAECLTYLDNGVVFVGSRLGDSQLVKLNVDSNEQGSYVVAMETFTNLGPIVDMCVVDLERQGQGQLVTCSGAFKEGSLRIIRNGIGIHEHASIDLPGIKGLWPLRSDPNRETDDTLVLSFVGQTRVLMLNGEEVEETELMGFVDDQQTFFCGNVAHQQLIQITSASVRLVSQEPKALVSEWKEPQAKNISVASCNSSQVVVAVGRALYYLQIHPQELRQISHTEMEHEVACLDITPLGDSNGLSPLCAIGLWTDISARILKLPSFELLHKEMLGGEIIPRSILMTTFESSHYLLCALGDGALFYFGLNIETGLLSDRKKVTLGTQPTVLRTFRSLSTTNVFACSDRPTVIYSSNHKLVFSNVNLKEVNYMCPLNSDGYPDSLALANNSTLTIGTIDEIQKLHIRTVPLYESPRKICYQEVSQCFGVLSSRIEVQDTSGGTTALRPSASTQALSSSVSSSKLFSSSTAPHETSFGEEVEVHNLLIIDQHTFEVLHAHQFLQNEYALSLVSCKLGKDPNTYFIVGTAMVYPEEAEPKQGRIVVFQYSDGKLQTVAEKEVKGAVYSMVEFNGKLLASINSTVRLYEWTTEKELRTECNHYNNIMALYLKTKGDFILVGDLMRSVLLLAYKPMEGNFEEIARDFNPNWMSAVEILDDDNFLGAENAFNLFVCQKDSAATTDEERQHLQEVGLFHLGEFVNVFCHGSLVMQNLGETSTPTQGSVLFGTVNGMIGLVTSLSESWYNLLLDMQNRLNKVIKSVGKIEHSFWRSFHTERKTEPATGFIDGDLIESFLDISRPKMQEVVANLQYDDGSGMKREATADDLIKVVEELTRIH
T3 sequence (Q9UKS7 whole entry): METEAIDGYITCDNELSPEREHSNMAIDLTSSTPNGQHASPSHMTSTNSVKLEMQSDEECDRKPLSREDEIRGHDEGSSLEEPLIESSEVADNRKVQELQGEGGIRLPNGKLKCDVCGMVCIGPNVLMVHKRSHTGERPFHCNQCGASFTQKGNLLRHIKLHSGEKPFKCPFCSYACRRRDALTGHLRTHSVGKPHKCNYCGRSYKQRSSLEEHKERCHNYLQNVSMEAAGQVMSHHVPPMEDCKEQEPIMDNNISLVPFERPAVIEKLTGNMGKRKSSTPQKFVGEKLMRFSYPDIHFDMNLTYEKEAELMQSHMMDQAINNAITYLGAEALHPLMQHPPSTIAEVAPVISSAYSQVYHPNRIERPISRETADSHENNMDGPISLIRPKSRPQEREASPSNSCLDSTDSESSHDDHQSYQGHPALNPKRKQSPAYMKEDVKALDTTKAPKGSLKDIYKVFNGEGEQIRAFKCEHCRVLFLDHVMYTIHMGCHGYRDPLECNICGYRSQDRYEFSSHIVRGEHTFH
T3 sequence (Q96SW2 whole entry): as the sequence (Q96SW2 whole entry) above
T3 sequence (Q16531 whole entry partner): as the sequence (Q16531 whole entry partner) above
T1 sequence (P30291 whole entry): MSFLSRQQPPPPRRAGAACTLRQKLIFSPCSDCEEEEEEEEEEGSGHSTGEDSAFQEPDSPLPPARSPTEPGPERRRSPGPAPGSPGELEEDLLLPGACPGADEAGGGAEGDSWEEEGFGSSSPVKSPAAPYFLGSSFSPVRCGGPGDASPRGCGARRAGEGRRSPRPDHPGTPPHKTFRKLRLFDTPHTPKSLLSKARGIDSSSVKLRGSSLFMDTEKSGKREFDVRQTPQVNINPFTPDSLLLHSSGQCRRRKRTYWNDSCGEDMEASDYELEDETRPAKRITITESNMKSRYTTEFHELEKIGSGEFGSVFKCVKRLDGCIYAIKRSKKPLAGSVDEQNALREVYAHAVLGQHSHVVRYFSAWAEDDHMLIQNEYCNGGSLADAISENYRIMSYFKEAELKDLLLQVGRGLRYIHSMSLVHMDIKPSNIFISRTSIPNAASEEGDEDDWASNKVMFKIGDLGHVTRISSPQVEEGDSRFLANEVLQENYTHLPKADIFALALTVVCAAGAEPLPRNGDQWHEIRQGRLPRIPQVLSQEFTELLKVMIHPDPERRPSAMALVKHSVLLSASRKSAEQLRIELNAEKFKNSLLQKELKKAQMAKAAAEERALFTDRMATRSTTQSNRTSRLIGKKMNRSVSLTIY
T1 sequence (Q96SW2 whole entry): as the sequence (Q96SW2 whole entry) above
T1 sequence (Q16531 whole entry partner): as the sequence (Q16531 whole entry partner) above
T6 sequence (P15170 whole entry): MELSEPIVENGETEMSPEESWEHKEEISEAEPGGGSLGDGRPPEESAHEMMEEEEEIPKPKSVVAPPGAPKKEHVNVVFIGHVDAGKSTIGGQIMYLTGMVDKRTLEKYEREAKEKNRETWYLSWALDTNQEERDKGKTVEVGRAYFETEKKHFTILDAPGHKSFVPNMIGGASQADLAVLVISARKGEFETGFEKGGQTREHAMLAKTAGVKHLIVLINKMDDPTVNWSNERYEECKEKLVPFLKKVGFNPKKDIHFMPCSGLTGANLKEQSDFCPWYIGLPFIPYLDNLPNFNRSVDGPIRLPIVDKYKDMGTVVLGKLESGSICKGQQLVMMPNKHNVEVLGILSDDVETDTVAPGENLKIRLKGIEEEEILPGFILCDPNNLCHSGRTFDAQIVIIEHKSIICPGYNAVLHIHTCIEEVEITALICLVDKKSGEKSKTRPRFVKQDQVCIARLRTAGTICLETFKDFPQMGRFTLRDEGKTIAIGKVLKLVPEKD
T6 sequence (Q96SW2 whole entry): as the sequence (Q96SW2 whole entry) above
T6 sequence (Q16531 whole entry partner): as the sequence (Q16531 whole entry partner) above
T5 sequence (P48729 whole entry): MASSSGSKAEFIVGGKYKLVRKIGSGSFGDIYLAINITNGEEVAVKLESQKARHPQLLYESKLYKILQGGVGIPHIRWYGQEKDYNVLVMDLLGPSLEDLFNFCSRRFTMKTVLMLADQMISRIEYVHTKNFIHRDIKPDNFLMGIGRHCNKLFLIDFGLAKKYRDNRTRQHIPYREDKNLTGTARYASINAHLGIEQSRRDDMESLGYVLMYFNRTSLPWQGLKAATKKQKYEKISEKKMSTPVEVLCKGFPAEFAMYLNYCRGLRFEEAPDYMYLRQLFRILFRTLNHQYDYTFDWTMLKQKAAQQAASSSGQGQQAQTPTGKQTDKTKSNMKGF
T5 sequence (Q96SW2 whole entry): as the sequence (Q96SW2 whole entry) above
T5 sequence (Q16531 whole entry partner): as the sequence (Q16531 whole entry partner) above

| Compound | WEE1 substrate protein remaining % (WEE1) | IKZF1 substrate protein remaining % (IKZF1) | IKZF2 substrate protein remaining % (IKZF2) | IKZF3 substrate protein remaining % (IKZF3) | CK1α substrate protein remaining % (CK1α) | GSPT1 substrate protein remaining % (GSPT1) |
| --- | --- | --- | --- | --- | --- | --- |
| O=C1CCN(N2C(=O)c3ccc(CN4CC=C(c5cccc6c(F)cccc56)CC4)cc3C2=O)C(=O)N1 [GT-07687, 2-(2,4-dioxotetrahydropyrimidin-1(2H)-yl)-5-((4-(5-fluoronaphthalen-1-yl)-3,6-dihydropyridin-1(2H)-yl)methyl)isoindoline-1,3-dione] | B (80%< substrate protein remaining % ≤100%) | B (80%< substrate protein remaining % ≤100%) | B (80%< substrate protein remaining % ≤100%) | B (80%< substrate protein remaining % ≤100%) | B (80%< substrate protein remaining % ≤100%) | A (0% ≤ substrate protein remaining % ≤80%) |
| O=C1CCN(N2C(=O)c3ccc(CN4CCC(c5cccc6cnccc56)CC4)cc3C2=O)C(=O)N1 [GT-07688, 2-(2,4-dioxotetrahydropyrimidin-1(2H)-yl)-5-((4-(isoquinolin-5-yl)piperidin-1-yl)methyl)isoindoline-1,3-dione] | B (80%< substrate protein remaining % ≤100%) | B (80%< substrate protein remaining % ≤100%) | B (80%< substrate protein remaining % ≤100%) | B (80%< substrate protein remaining % ≤100%) | B (80%< substrate protein remaining % ≤100%) | A (0% ≤ substrate protein remaining % ≤80%) |
| O=C1CCN(N2C(=O)c3ccc(CN4CCC(c5ccnc6cc(F)ccc56)CC4)cc3C2=O)C(=O)N1 [GT-07689, 2-(2,4-dioxotetrahydropyrimidin-1(2H)-yl)-5-((4-(7-fluoroquinolin-4-yl)piperidin-1-yl)methyl)isoindoline-1,3-dione] | B (80%< substrate protein remaining % ≤100%) | B (80%< substrate protein remaining % ≤100%) | B (80%< substrate protein remaining % ≤100%) | B (80%< substrate protein remaining % ≤100%) | A (0% ≤ substrate protein remaining % ≤80%) | A (0% ≤ substrate protein remaining % ≤80%) |
| O=C1CCN(N2Cc3cc(CN4CC(C5CCOc6cc(F)ccc65)C4)ccc3C2=O)C(=O)N1 (stereo not drawn) [GT-07690, 1-(5-((3-(7-fluorochroman-4-yl)azetidin-1-yl)methyl)-1-oxoisoindolin-2-yl)dihydropyrimidine-2,4(1H,3H)-dione] | B (80%< substrate protein remaining % ≤100%) | B (80%< substrate protein remaining % ≤100%) | A (0% ≤ substrate protein remaining % ≤80%) | B (80%< substrate protein remaining % ≤100%) | A (0% ≤ substrate protein remaining % ≤80%) | A (0% ≤ substrate protein remaining % ≤80%) |
| O=C1CCN(N2Cc3cc(CN4CC(c5ccnc6cc(F)ccc56)C4)ccc3C2=O)C(=O)N1 [GT-07711, 1-(5-((3-(7-fluoroquinolin-4-yl)azetidin-1-yl)methyl)-1-oxoisoindolin-2-yl)dihydropyrimidine-2,4(1H,3H)-dione] | B (80%< substrate protein remaining % ≤100%) | A (0% ≤ substrate protein remaining % ≤80%) | A (0% ≤ substrate protein remaining % ≤80%) | A (0% ≤ substrate protein remaining % ≤80%) | A (0% ≤ substrate protein remaining % ≤80%) | A (0% ≤ substrate protein remaining % ≤80%) |
| O=C1CCN(N2C(=O)c3ccc(CN4CC(C5CCOc6cc(F)ccc65)C4)cc3C2=O)C(=O)N1 (stereo not drawn) [GT-07715, 2-(2,4-dioxotetrahydropyrimidin-1(2H)-yl)-5-((3-(7-fluorochroman-4-yl)azetidin-1-yl)methyl)isoindoline-1,3-dione] | B (80%< substrate protein remaining % ≤100%) | B (80%< substrate protein remaining % ≤100%) | B (80%< substrate protein remaining % ≤100%) | B (80%< substrate protein remaining % ≤100%) | A (0% ≤ substrate protein remaining % ≤80%) | A (0% ≤ substrate protein remaining % ≤80%) |
| O=C1CCN(N2C(=O)c3ccc(CN4CC(c5ccnc6cc(F)ccc56)C4)cc3C2=O)C(=O)N1 [GT-07718, 2-(2,4-dioxotetrahydropyrimidin-1(2H)-yl)-5-((3-(7-fluoroquinolin-4-yl)azetidin-1-yl)methyl)isoindoline-1,3-dione] | B (80%< substrate protein remaining % ≤100%) | B (80%< substrate protein remaining % ≤100%) | B (80%< substrate protein remaining % ≤100%) | A (0% ≤ substrate protein remaining % ≤80%) | A (0% ≤ substrate protein remaining % ≤80%) | A (0% ≤ substrate protein remaining % ≤80%) |
| O=C1CCN(N2Cc3cc(CN4CCn5c(nnc5C(F)(F)F)C4)ccc3C2=O)C(=O)N1 [GT-07719, 1-(1-oxo-5-((3-(trifluoromethyl)-5,6-dihydro-[1,2,4]triazolo[4,3-a]pyrazin-7 (8H)-yl)methyl)isoindolin-2-yl)dihydropyrimidine-2,4(1H,3H)-dione] | B (80%< substrate protein remaining % ≤100%) | B (80%< substrate protein remaining % ≤100%) | A (0% ≤ substrate protein remaining % ≤80%) | A (0% ≤ substrate protein remaining % ≤80%) | A (0% ≤ substrate protein remaining % ≤80%) | A (0% ≤ substrate protein remaining % ≤80%) |
| O=C1CCN(N2Cc3cc(CN4CCc5sccc5C4)ccc3C2=O)C(=O)N1 [GT-07720, 1-(5-((6,7-dihydrothieno[3,2-c]pyridin-5 (4H)-yl)methyl)-1-oxoisoindolin-2-yl)dihydropyrimidine-2,4(1H,3H)-dione] | A (0% ≤ substrate protein remaining % ≤80%) | A (0% ≤ substrate protein remaining % ≤80%) | A (0% ≤ substrate protein remaining % ≤80%) | A (0% ≤ substrate protein remaining % ≤80%) | A (0% ≤ substrate protein remaining % ≤80%) | A (0% ≤ substrate protein remaining % ≤80%) |
| O=C1CCN(N2Cc3cc(CN4CCN(Cc5ccc(C67CC8CC(CC(C8)C6)C7)cc5)CC4)ccc3C2=O)C(=O)N1 [GT-07721, 1-(5-((4-(4-((3r,5r,7r)-adamantan-1-yl)benzyl)piperazin-1-yl)methyl)-1-oxoisoindolin-2-yl)dihydropyrimidine-2,4(1H,3H)-dione] | A (0% ≤ substrate protein remaining % ≤80%) | A (0% ≤ substrate protein remaining % ≤80%) | A (0% ≤ substrate protein remaining % ≤80%) | A (0% ≤ substrate protein remaining % ≤80%) | A (0% ≤ substrate protein remaining % ≤80%) | A (0% ≤ substrate protein remaining % ≤80%) |

Reference: US20260356819A1, “OXOISOINDOLINYL-SUBSTITUTED […] DERIVATIVE AND USE THEREOF” (GLUETACS THERAPEUTICS (SHANGHAI) CO., LTD., priority 2023, published 2026)
